Experimental data from US11547681B2, “N-acylethanolamide derivatives and uses thereof” (ELIEM THERAPEUTICS, INC., priority 2016, dated 2023).

Experiments:
[1] = in vitro; details: for Measured concentration of analyte PEA, 0 min / Measured concentration of analyte PEA, 10 min / Measured concentration of analyte PEA, 20 min / Measured concentration of analyte PEA, 30 min / Measured concentration of analyte PEA, 60 min / % Remaining of Initial, 0 min / % Remaining of Initial, 10 min / % Remaining of Initial, 20 min / % Remaining of Initial, 30 min / % Remaining of Initial, 60 min / Concentration, analyte PEA / % Remaining of Initial (n = 1): 1 μM; for % Remaining of Initial, 0 min / % Remaining of Initial, 10 min / % Remaining of Initial, 20 min / % Remaining of Initial, 30 min / % Remaining of Initial, 60 min / microsomal CLint at 1 μM / half-life at 1 μM / % Remaining of Initial (n = 1): microsomes
Summary of the method: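 First, compound was spiked at a final 1 μM into microsomal mixture lacking cofactor and equilibrated at 37° C. Next, cofactor was added to initiate metabolism. Aliquots removed at 0–60 min were stopped with cold formic acid/acetonitrile, centrifuged and measured by LC-MS/MS.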

[2] = in vitro; details: male; for Measured concentration of analyte PEA, 0 min / Measured concentration of analyte PEA, 10 min / Measured concentration of analyte PEA, 20 min / Measured concentration of analyte PEA, 30 min / Measured concentration of analyte PEA, 60 min / % Remaining of Initial, 0 min / % Remaining of Initial, 10 min / % Remaining of Initial, 20 min / % Remaining of Initial, 30 min / % Remaining of Initial, 60 min / Concentration, analyte PEA / % Remaining of Initial (n = 1): 1 μM; for % Remaining of Initial, 0 min / % Remaining of Initial, 10 min / % Remaining of Initial, 20 min / % Remaining of Initial, 30 min / % Remaining of Initial, 60 min / microsomal CLint at 1 μM / half-life at 1 μM / % Remaining of Initial (n = 1): microsomes
Summary of the method: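 Half-lives were fitted as single-phase exponential decay of percent remaining relative to time 0, with prodrug and PEA measured by electrospray LC-MS/MS. Reactions at 37° C held 1 μM test article, were started with cofactor and sampled up to 60 minutes into ice-cold acetonitrile with formic acid.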

[3] = male, Sprague-Dawley, rat, 0 min
[4] = male, Sprague-Dawley, rat, 10 min
[5] = male, Sprague-Dawley, rat, 20 min
[6] = male, Sprague-Dawley, rat, 30 min
[7] = male, Sprague-Dawley, rat, 60 min
[8] = male, Sprague-Dawley, rat, 0.5 h

CCCCCCCCCCCCCCCC(=O)NCCOC(=O)CCC(=O)OCC(COC(=O)CCC)OC(=O)CCC (stereo not drawn) [Compound I-11]
Measured concentration of analyte PEA, 0 min ([1]; both, human, 0 min): 0.046 µM | Measured concentration of analyte PEA, 10 min ([1]; both, human, 10 min): 0.29 µM | Measured concentration of analyte PEA, 20 min ([1]; both, human, 20 min): 0.20 µM | Measured concentration of analyte PEA, 30 min ([1]; both, human, 30 min): 0.16 µM | Measured concentration of analyte PEA, 60 min ([1]; both, human, 60 min): 0.057 µM | % Remaining of Initial, 0 min ([1]; both, human, 0 h): 100% | % Remaining of Initial, 10 min ([1]; both, human, 10 min): 3.1% | % Remaining of Initial, 20 min ([1]; both, human, 20 min): <1.0% | % Remaining of Initial, 30 min ([1]; both, human, 0.5 h): <1.0% | % Remaining of Initial, 60 min ([1]; both, human, 1 h): <1.0% | microsomal CLint at 1 μM ([1]; both, human): 696 µL/min/mg | half-life at 1 μM ([1]; both, human): 2 min | Measured concentration of analyte PEA, 0 min [1, 3]: 0.023 µM | Measured concentration of analyte PEA, 10 min [1, 4]: 0.048 µM | Measured concentration of analyte PEA, 20 min [1, 5]: 0.031 µM | Measured concentration of analyte PEA, 30 min [1, 6]: 0.0086 µM | Measured concentration of analyte PEA, 60 min [1, 7]: 0 µM | % Remaining of Initial, 0 min ([1]; male, Sprague-Dawley, rat, 0 h): 100% | % Remaining of Initial, 10 min [1, 4]: 3.3% | % Remaining of Initial, 20 min [1, 5]: <1.0% | % Remaining of Initial, 30 min [1, 8]: <1.0% | % Remaining of Initial, 60 min ([1]; male, Sprague-Dawley, rat, 1 h): <1.0% | microsomal CLint at 1 μM ([1]; male, Sprague-Dawley, rat): 681 µL/min/mg | half-life at 1 μM ([1]; male, Sprague-Dawley, rat): 2 min | Measured concentration of analyte PEA, 0 min ([2]; Beagle, dog, 0 min): 0.032 µM | Measured concentration of analyte PEA, 10 min ([2]; Beagle, dog, 10 min): 0.32 µM | Measured concentration of analyte PEA, 20 min ([2]; Beagle, dog, 20 min): 0.26 µM | Measured concentration of analyte PEA, 30 min ([2]; Beagle, dog, 30 min): 0.20 µM | Measured concentration of analyte PEA, 60 min ([2]; Beagle, dog, 60 min): 0.097 µM | % Remaining of Initial, 0 min ([2]; Beagle, dog, 0 h): 100% | % Remaining of Initial, 10 min ([2]; Beagle, dog, 10 min): 3.6% | % Remaining of Initial, 20 min ([2]; Beagle, dog, 20 min): <1.0% | % Remaining of Initial, 30 min ([2]; Beagle, dog, 0.5 h): <1.0% | % Remaining of Initial, 60 min ([2]; Beagle, dog, 1 h): <1.0% | microsomal CLint at 1 μM ([2]; Beagle, dog): 665 µL/min/mg | half-life at 1 μM ([2]; Beagle, dog): 2.1 min | Measured concentration of analyte PEA, 0 min ([2]; CD-1, mouse, 0 min): 0.22 µM | Measured concentration of analyte PEA, 10 min ([2]; CD-1, mouse, 10 min): 0.32 µM | Measured concentration of analyte PEA, 20 min ([2]; CD-1, mouse, 20 min): 0.18 µM | Measured concentration of analyte PEA, 30 min ([2]; CD-1, mouse, 30 min): 0.12 µM | Measured concentration of analyte PEA, 60 min ([2]; CD-1, mouse, 60 min): 0.030 µM | % Remaining of Initial, 0 min ([2]; CD-1, mouse, 0 h): 100% | % Remaining of Initial, 10 min ([2]; CD-1, mouse, 10 min): 3.2% | % Remaining of Initial, 20 min ([2]; CD-1, mouse, 20 min): <1.0% | % Remaining of Initial, 30 min ([2]; CD-1, mouse, 0.5 h): <1.0% | % Remaining of Initial, 60 min ([2]; CD-1, mouse, 1 h): <1.0% | microsomal CLint at 1 μM ([2]; CD-1, mouse): 687 µL/min/mg | half-life at 1 μM ([2]; CD-1, mouse): 2 min

CCCCC/C=C\C/C=C\CCCCCCCC(=O)OCC(COC(=O)CCC(=O)OCCNC(=O)CCCCCCCCCCCCCCC)OC(=O)CCCCCCC/C=C\C/C=C\CCCCC (stereo not drawn) [Compound I-13]
Concentration, analyte PEA ([1]; both, human, 0 min): 0 nM | Concentration, analyte PEA ([1]; both, human, 10 min): 0 nM | Concentration, analyte PEA ([1]; both, human, 20 min): 0 nM | Concentration, analyte PEA ([1]; both, human, 30 min): 0 nM | Concentration, analyte PEA ([1]; both, human, 60 min): 0 nM | % Remaining of Initial (n = 1) ([1]; both, human, 0 h): 100% | % Remaining of Initial (n = 1) ([1]; both, human, 10 min): 79% | % Remaining of Initial (n = 1) ([1]; both, human, 20 min): 73% | % Remaining of Initial (n = 1) ([1]; both, human, 0.5 h): 60% | % Remaining of Initial (n = 1) ([1]; both, human, 1 h): 42% | microsomal CLint at 1 μM ([1]; both, human): 29.6 µL/min/mg | half-life at 1 μM ([1]; both, human): 47 min | Concentration, analyte PEA [1, 3]: 0 nM | Concentration, analyte PEA [1, 4]: 0 nM | Concentration, analyte PEA [1, 5]: 13 nM | Concentration, analyte PEA [1, 6]: 13 nM | Concentration, analyte PEA [1, 7]: 0 nM | % Remaining of Initial (n = 1) ([1]; male, Sprague-Dawley, rat, 0 h): 100% | % Remaining of Initial (n = 1) [1, 4]: 91% | % Remaining of Initial (n = 1) [1, 5]: 72% | % Remaining of Initial (n = 1) [1, 8]: 60% | % Remaining of Initial (n = 1) ([1]; male, Sprague-Dawley, rat, 1 h): 38% | microsomal CLint at 1 μM ([1]; male, Sprague-Dawley, rat): 33.6 µL/min/mg | half-life at 1 μM ([1]; male, Sprague-Dawley, rat): 41 min | Concentration, analyte PEA ([2]; Beagle, dog, 0 min): 0 nM | Concentration, analyte PEA ([2]; Beagle, dog, 10 min): 0 nM | Concentration, analyte PEA ([2]; Beagle, dog, 20 min): 0 nM | Concentration, analyte PEA ([2]; Beagle, dog, 30 min): 0 nM | Concentration, analyte PEA ([2]; Beagle, dog, 60 min): 0 nM | % Remaining of Initial (n = 1) ([2]; Beagle, dog, 0 h): 100% | % Remaining of Initial (n = 1) ([2]; Beagle, dog, 10 min): 78% | % Remaining of Initial (n = 1) ([2]; Beagle, dog, 20 min): 76% | % Remaining of Initial (n = 1) ([2]; Beagle, dog, 0.5 h): 56% | % Remaining of Initial (n = 1) ([2]; Beagle, dog, 1 h): 32% | microsomal CLint at 1 μM ([2]; Beagle, dog): 36.2 µL/min/mg | half-life at 1 μM ([2]; Beagle, dog): 38 min | Concentration, analyte PEA ([2]; CD-1, mouse, 0 min): 0 nM | Concentration, analyte PEA ([2]; CD-1, mouse, 10 min): 0 nM | Concentration, analyte PEA ([2]; CD-1, mouse, 20 min): 0 nM | Concentration, analyte PEA ([2]; CD-1, mouse, 30 min): 0 nM | Concentration, analyte PEA ([2]; CD-1, mouse, 60 min): 0 nM | % Remaining of Initial (n = 1) ([2]; CD-1, mouse, 0 h): 100% | % Remaining of Initial (n = 1) ([2]; CD-1, mouse, 10 min): 69% | % Remaining of Initial (n = 1) ([2]; CD-1, mouse, 20 min): 75% | % Remaining of Initial (n = 1) ([2]; CD-1, mouse, 0.5 h): 54% | % Remaining of Initial (n = 1) ([2]; CD-1, mouse, 1 h): 44% | microsomal CLint at 1 μM ([2]; CD-1, mouse): 29.1 µL/min/mg | half-life at 1 μM ([2]; CD-1, mouse): 48 min
